Data as given in paper PMC3964211, “Pharmacokinetic modeling optimizes inhibition of the ‘undruggable’ EWS-FLI1 transcription factor in Ewing Sarcoma” (Oncotarget, 2013).

Test: Pharmacokinetics in SD rats, single oral gavage
Format: in vivo, Sprague-Dawly (SD) rats
Details: analyte (S)-YK-4-279 in plasma
Experimental: To optimize dosing in animals, we determined the pharmacokinetics of YK-4-279 and its single enantiomers in Sprague-Dawly (SD) rats. Three rats of each gender were assigned to nine dose groups. Animals in Groups 1 through 3 received a single intravenous (IV) injection of racemic mixture, (S)-YK-4-279, or (R)-YK-4-279 at a dose of 25 mg/kg. Animals in Groups 4 through 9 received a single oral gavage administration of racemic mixture, (S)-YK-4-279, or (R)-YK-4-279 at a dosage level of 25 or 50 mg/kg. […] However, given that approximately 50 percent of the racemic mixture is (S)-YK-4-279 and the clearance […] the dose, the IV clearance of (S)-YK-4-279 is considered to be similar whether a racemic mixture or only (S)-YK-4-279 is administered. Systemic exposure to (S)-YK-4-279 was evaluated using Cmax and AUC values. Cmax and AUC8 values were similar between males and females for a given dose group. With an expected enantiomer ratio of 1:1 in the racemic dose, Group 2 animals would have received a 2-fold higher dose of (S)-YK-4-279 than Group 1 animals. […] Absolute bioavailability of (S)-YK-4-279 following gavage administration, using cremophor/ethanol as an excipient, in SD rats was only 2–6% (Table 2).
Nine SD rats of each gender were assigned to nine dose groups. Groups 1 through 3 received a single IV injection of racemic mixture, (S)-YK-4-279, or (R)-YK-4-279 at a dose of 25 mg/kg. Groups 4 through 9 received a single gavage administration of racemic mixture, (S)-YK-4-279, or (R)-YK-4-279 at a dosage level of 25 or 50 mg/kg. Blood samples were collected from one animal per group per time point at target time points of pre-dose, 5, 15, 30 and 60 minutes, and 2, 4, 8 and 12 hours following dosing. Plasma was obtained from the samples and analyzed for (S) and (R)-YK-4-279 concentrations.
The plasma and tumor sample analysis was performed using calibration standards and Quality Control (QC) samples prepared in control rat or mouse plasma and tumor tissues. Plasma and tumor calibration standards were prepared from stock solutions of YK-4-279. The calibration standards, blanks, QC samples, and study samples were then processed by solid-liquid extraction (SLE) followed by analysis using liquid chromatography with mass spectrometry (LC-MS). The LC-MS systems used for the analysis of YK-4-279 was composed of Shimadzo prominence pump and auto-sampler (Kyoto, Japan), a Sciex API 5000 MS (Toronto, Ontario), with turbo ion spary in the positive ion mode. The samples for the analysis of total YK-4-279 were injected into a 50 × 2 mm Gemini- NX, 5 ¼m column (Phenomenex, Torrance, CA). The samples for the analysis of the specific enantiomers of YK-4-279 were injected into a 150 × 2 mm Lux Cellulose-2, 3 ¼m Phenomenex column. The transitions monitored were 366 amu to 135 amu for YK-4-279 and 369 amu to 138 amu for the YK-4-279-d3 internal standard. YK-4-279 concentrations were calculated using peak area response ratios and a regression equation constructed from the concentrations and peak area response ratios of the calibration standards. The lower limit of quantitation was 5.0 ng/mL in plasma and […] in tumor tissue. The concentration-time profiles were evaluated by compartmental modeling and non-compartmental analysis using WinNonlin (Pharsight Corporation, Mountain View, CA). The PK parameters obtained from the compartmental modeling were used in simulations to identify optimal dose level and dosing schedule for maintaining plasma concentration of (S)-YK-4-279 above 3 ¼M.

[1] = female (n=9), oral gavage 25 mg/kg
[2] = female (n=9), oral gavage 50 mg/kg
[3] = male (n=9), oral gavage 25 mg/kg
[4] = male (n=9), oral gavage 50 mg/kg

Row | Compound | AUClast [1] | AUC∞ [1] | Absolute Bioavailability [1] | Apparent Clearance [1] | Observed Cmax [1] | Observed Tmax [1] | Terminal Elimination Half-Life [1] | AUClast [2] | AUC∞ [2] | Absolute Bioavailability [2] | Apparent Clearance [2] | Observed Cmax [2] | Observed Tmax [2] | Terminal Elimination Half-Life [2] | AUClast [3] | AUC∞ [3] | Absolute Bioavailability [3] | Apparent Clearance [3] | Observed Cmax [3] | Observed Tmax [3] | other results
1 | COc1ccc(C(=O)C[C@]2(O)C(=O)Nc3c(Cl)ccc(Cl)c32)cc1 [(R)-YK-4-279] | BLOQ | BLOQ | BLOQ | BLOQ | BLOQ | BLOQ | BLOQ | BLOQ | BLOQ | BLOQ | BLOQ | BLOQ | BLOQ | BLOQ | BLOQ | BLOQ | BLOQ | BLOQ | BLOQ1 | BLOQ | Terminal Elimination Half-Life [3]: BLOQ; AUClast [4]: BLOQ; AUC∞ [4]: BLOQ; Absolute Bioavailability [4]: BLOQ; Apparent Clearance [4]: BLOQ; Observed Cmax [4]: BLOQ; Observed Tmax [4]: BLOQ; Terminal Elimination Half-Life [4]: BLOQ
2 | COc1ccc(C(=O)CC2(O)C(=O)Nc3c(Cl)ccc(Cl)c32)cc1 (centres unmarked) [YK-4-279] | 1.07 hr*¼M | 1.31 hr*¼M | 5.06% | 52,200 mL/hr/kg | 0.513 ¼M | 0.500 h | 1.56 h | 3.09 hr*¼M | 3.14 hr*¼M | 6.07% | 43,400 mL/hr/kg | 0.647 ¼M | 0.500 h | 1.97 h | 0.563 hr*¼M | 0.754 hr*¼M | 2.83% | 90,300 mL/hr/kg | 0.142 ¼M | 1.00 h | Terminal Elimination Half-Life [3]: 3.84 h; AUClast [4]: 1.04 hr*¼M; AUC∞ [4]: 1.18 hr*¼M; Absolute Bioavailability [4]: 2.21%; Apparent Clearance [4]: 116,000 mL/hr/kg; Observed Cmax [4]: 0.241 ¼M; Observed Tmax [4]: 2.00 h; Terminal Elimination Half-Life [4]: 4.23 h
